Patent US20240245770A1, “COMPOSITIONS AND METHODS FOR TREATING NEUROMUSCULAR DISORDERS” (The Regents of the University of California, priority 2019, published 2024)

Key:
[1] = test system: Oral squamous carcinoma cells (OSCCs) and Oral squamous stem cell carcinoma (OSCSCs); test: NAC blocking of CDDP mediated cell death (PI staining, flow cytometry); type: cell-based, human; settings: NAC 20 mM, 24 hours, OSCCs and OSCSCs
Method: Testing and selection of the best NAC to be used in ALS treatment. […] Afterwards OSCCs and OSCSCs were detached, and the viability of cells was determined after PI staining followed by flow cytometric analysis. In this figure Forward and Side Scatters (Fs/ss) were assessed since decrease in the Fs/ss is seen in cells undergoing cell death.
Testing and selection of the best NAC to be used in ALS treatment. […] Afterwards OSCCs and OSCSCs were detached, and the viability of cells was determined after PI staining followed by flow cytometric analysis. In this figure the percentage of PI stained cells were assessed.

OSCSCs = test: NAC blocking of H2O2 mediated cell death in OSCSCs; type: cell-based, human; settings: NAC 20 mM, 24 hours, FIG. 68

CC(=O)N[C@@H](CS)C(=O)O [NAC, N-Acetyl-Cysteine]
CDDP mediated cell death, Forward and Side Scatters (Fs/ss) ([1]; FIG. 65): blocks CDDP mediated Cell death in Oral tumors
CDDP mediated cell death, percentage of PI stained cells ([1]; FIG. 66): blocks CDDP mediated Cell death in Oral tumors
H2O2 mediated cell death (Fs/ss and PI positive cells) (OSCSCs): blocks H2O2 mediated Cell death in OSCSCs
